# According to publication PMC9503459, “Antifungal Activity, Structural Stability, and Immunomodulatory Effects on Human Immune Cells of Defensin from the Lentil Lens culinaris” (Membranes, 2022):
# Where “and” joins values, the source holds several entries; their conditions need not be identical. Identical values can stand only once. No end group written: not given here.
# Tested on: regulatory CD4+ FoxP3+ T cells (Tregs)
# Assay: Cytokine response by multiplex xMAP, Tregs
# Format: cell-based, human
# Conditions: CD4+CD25+ Tregs, 2 µM, 24 h
# Protocol: Colorectal adenocarcinoma Caco-2 cell line (ATCC HTB-37) was cultured in complete DMEM/F12 (1:1) medium containing 10% fetal bovine serum (FBS, Gibco) and 1X antibiotic-antimycotic solution (1XAAS, Invitrogen, Waltham, MA, USA). The acute monocytic leukemia THP-1 line (ATCC TIB-202) was cultured in complete RPMI-1640 medium, containing 10% FBS, 1XAAS, and […]. THP-1 cells were differentiated into pro-inflammatory macrophages (Mφ1) with phorbol 12-myristate 13-acetate (Sigma-Aldrich) for 24 h and subsequently polarized with lipopolysaccharide from E. coli (Sigma-Aldrich) and rhIFN-γ (Sigma-Aldrich) for another 48 h according to previously reported protocol. All cells were cultured in a humidified CO2 incubator (5% CO2, 37 °C). Primary peripheral blood mononuclear cells (PBMCs) collected from a healthy donor were purchased from American Type Culture Collection (ATCC PCS-800-011). CD4^+ T-helper and CD8^+ T cytotoxic cells were isolated from PBMCs by magnetic separation with mouse anti-human CD4-PE (clone 13B8.2, Beckman Coulter Diagnostics, Pasadena, CA, USA) and CD8-PE (clone REA734, Miltenyi Biotec, Bergisch Gladbach, Germany), Anti-PE MicroBeads (Miltenyi Biotec), and LS Separation Columns (Miltenyi Biotec). Isolated CD4^+ and CD8^+ cells were expanded separately with Dynabeads™ Human T-Expander CD3/CD28 (Gibco, Waltham, MA, USA) in RPMI-1640 supplemented with 10% FBS, 1XAAS and 100 U/mL rh-IL-2 (Gibco). Regulatory CD4^+ FoxP3^+ T cells (Tregs) were isolated from PBMCs by magnetic separation with CD4^+CD25^+ Regulatory T Cell Isolation Kit, human (Miltenyi Biotec). Primary CD14^+ blood monocytes were isolated from PBMCs by adherence according to standard technique. Monocyte-derived mature dendritic cells (moDCs) were obtained from CD14^+ blood monocytes according to the previously reported protocol. Briefly, blood monocytes were incubated in complete RPMI-1640 medium, containing 10% FBS, 1XAAS, 800 U/mL rhGM-CSF (Sci-Store, Russia, Moscow) and 500 U/mL rhIL-4 (Sci-Store) for 3 days. Fresh complete RPMI-1640 medium with rhGM-CSF and rhIL-4 was added to the culture on day 3. On day 5, fresh complete RPMI-1640 containing 100 U/mL rhTNF-α (Sigma) as well as 800 U/mL rhGM-CSF and 500 U/mL rhIL-4 was added and the culture was incubated for another 4 days until full maturation.
# Caco-2 cells were seeded into the wells of a 48-well plate, coated with 0.1% bovine collagen (Sigma-Aldrich) for 24 h, 3 weeks before the experiment with complete DMEM/F12 (1:1) medium renewal every 2–3 days. Monocytes, moDCs, CD4^+ T-helper and CD8^+ T cytotoxic cells, Mφ1, and Regulatory CD4^+ FoxP3^+ T cells were seeded into the wells of 48-well plates in the complete RPMI-1640 medium supplemented with 10% Human AB serum (HABS, Capricorn Scientific, Ebsdorfergrund, Germany) and 1XAAS 24 h prior to the experiment; medium in Caco-2-containing wells was also replaced with the same medium. After 24 h, half of the medium in each well was replaced by fresh complete RPMI-1640 medium with 10% HABS, supplemented with 4 µM of Lc-def for the sample wells or fresh medium alone for the control wells. Cell cultures were kept in CO2-incubator (5% CO2, 37 °C) for another 24 h. Culture supernatants were collected 24 h later and stored at −70 °C degrees less than one month prior to the analytes assessment. […]
substance,measurement,value
"Lc-def: defensin from lentil Lens culinaris seeds (UniProt:B3F051), recombinant, overexpressed in Escherichia coli (KTCENLSDSFKGPCIPDGNCNKHCKEKEHLLSGRCRDDFRCWCTRNC; disulfide (positions not given here); ends not checked; also: disulfide bonds present, pairing not given here; UniProt B3F051 28-74, looked up)",EGF,4.15 pg/mL
same,Eotaxin,<3.23↓ pg/ml
same,FGF-2,34.19 pg/mL
same,FLT-3L,0.62 pg/mL
same,Fractalkine,<23.19↓ pg/ml
same,G-CSF,9.93 pg/mL
same,GM-CSF,54.75 pg/mL
same,GROa,29.97 pg/mL
same,IFNa2,<4.43↓ pg/ml
same,IFNg,38.55 pg/mL
same,IL-1RA,1.04 pg/mL
same,IL-1a,19.36 pg/mL
same,IL-1b,<18.72↓ pg/ml
same,IL-2,4.82 pg/mL
same,IL-3,<0.48↓ pg/ml
same,IL-4,<0.31↓ pg/ml
same,IL-5,<0.24↓ pg/ml
same,IL-6,317 pg/mL and 317.05 pg/mL
same,IL-7,<0.33↓ pg/ml
same,IL-8,1247 pg/mL
same,IL-9,5.08 pg/mL
same,IL-10,42.25 pg/mL
same,IL-12 (p40),19.56 pg/mL
same,IL-12 (p70),3.39 pg/mL
same,IL-13,7.95 pg/mL
same,IL-15,<1.45↓ pg/ml
same,IL-17A,2.6 pg/mL
same,IL-17E/IL-25,<20.59↓ pg/ml
same,IL-17F,51.91 pg/mL
same,IL-18,0.56 pg/mL
same,IL-22,24.29 pg/mL
same,IL-27,84.77 pg/mL
same,IP-10,114.68 pg/mL
same,M-GSF,<23.75↓ pg/ml
same,MCP-1,505 pg/mL and 505.45 pg/mL
same,MCP-3,21.04 pg/mL
same,MDC,968.96 pg/mL
same,MIG,479.53 pg/mL
same,MIP-1a,233 pg/mL and 233.56 pg/mL
same,MIP-1b,313.49 pg/mL
same,PDGF-AA,<7.38↓ pg/ml
same,PDGF-AB/BB,119.45 pg/mL
same,RANTES,12.31 pg/mL
same,TGF-a,1.25 pg/mL
same,TNFa,97.83 pg/mL
same,TNFb,2.32 pg/mL
same,VEGFa,<1.27↓ pg/ml
same,sCD40L,66.54 pg/mL
